Laboratory results published in patent publication US20250170080A1, “COMPOSITIONS COMPRISING BUTYRIC ACID AND GLUCONIC ACID FOR THE TREATMENT OF DISORDERS AND SYNDROMES ASSOCIATED WITH INTESTINAL BARRIER DYSFUNCTIONS AND DYSBIOSIS” (DIFASS INTERNATIONAL S.P.A., priority 2022, published 2025).

Key:
[1] = test system: TNF-alpha; experiment: TNF-alpha release (ELISA) in reconstructed 3D human intestinal epithelium stressed with LPS+TNF-alpha; conditions: for effect on release of TNF-alpha (in words): LPS+TNF-alpha stressed tissue, vs positive control, t-test; for TNF-alpha Anti-inflammatory activity: compared with CTR+ (LPS+TNF-alpha), * = p<0.05 vs positive control; for TNF-alpha Anti-inflammatory activity / TNF-alpha % var. vs CTR −: reference dose; for TNF-alpha % var. vs CTR −: variation vs untreated tissues (CTR−), LPS+TNF-alpha stressed
Protocol: (§1) Assays of pro-inflammatory cytokines TNF-alpha and IL-6 were evaluated. The biological model used in the assay is a model of human intestinal epithelium reconstructed in vitro in 3D, consisting of intestinal epithelial and endothelial cells and fibroblasts of human origin. The highly differentiated tissue model is produced at the air-liquid interface in easily manageable culture tissue inserts using a serum-free medium. […] The cells used to produce the tissue model were screened for potential biological contaminants, using specific tests and analyses to guarantee the functionality and quality of the tissues.
(§2) The intestinal epithelium tissues reconstructed in vitro were exposed for 24 hours to the stressor lipopolysaccharide of bacterial origin (LPS) in combination with cytokine TNF-alpha, and simultaneously treated for a further 24 hours with each experimental condition examined. After the 48-hour experimental session, the culture media were harvested to assay pro-inflammatory cytokines TNF-alpha and IL-6.
(§3) Each ingredient and the mixture selected for the treatments were diluted in H2O, taking account of the average intestinal volume of 80 ml. In particular, the following reference doses were used: • calcium butyrate 500 mg; • gluconic acid 29.87 mg; • gluconic acid+calcium butyrate=29.87 mg+500 mg.
(§4) 50 μl of each sample was tested in the tissue model, simulating the following experimental conditions: • reference dose; The experimental protocol involved: • untreated tissues (CTR−); • tissues exposed to pro-inflammatory agents LPS+TNF-alpha (CTR+); • tissues exposed to pro-inflammatory agents LPS+TNF-alpha and treated with butyrate (calcium butyrate); • tissues exposed to pro-inflammatory agents LPS+TNF-alpha and treated with gluconic acid; • tissues exposed to pro-inflammatory agents LPS+TNF-alpha and treated with gluconic acid+butyrate (calcium butyrate) mixture; • Each test was conducted in duplicate. To monitor the ability of the tested ingredients to inhibit the inflammatory response in vitro in a system wherein an inflammatory condition has been induced, the production of pro-inflammatory cytokine TNF-alpha and interleukin 6 (IL-6) was evaluated. At the end of the treatments the culture media were harvested for the TNF-alpha and IL-6 assay using an ELISA kit. The data obtained were subjected to statistical analysis and compared using the t-test. The variations compared with the positive control are deemed significant for p<0.05 and indicated by “*”.
(§5) The results are expressed as mean values ±standard deviation (expressed in pg/ml), as % variation compared with CTR− and as anti-inflammatory activity compared with CTR+.

[2] = test system: IL-6; experiment: IL-6 release (ELISA) in reconstructed 3D human intestinal epithelium stressed with LPS+TNF-alpha; conditions: for effect on release of IL-6 (in words): LPS+TNF-alpha stressed tissue, vs positive control, t-test; for IL-6 Anti-inflammatory activity: compared with CTR+ (LPS+TNF-alpha), * = p<0.05 vs positive control; for IL-6 Anti-inflammatory activity / IL-6 % var. vs CTR −: reference dose; for IL-6 % var. vs CTR −: variation vs untreated tissues (CTR−), LPS+TNF-alpha stressed
Protocol: as §1, §2, §3, §4, §5

[3] = oral intake; avoids digestion and absorption in the small intestine; cited from earlier work

SMILES	effect on release of TNF-alpha (in words) [1]	TNF-alpha Anti-inflammatory activity [1]	TNF-alpha % var. vs CTR − [1]	effect on release of IL-6 (in words) [2]	IL-6 Anti-inflammatory activity [2]	IL-6 % var. vs CTR − [2]	gluconic acid introduced with the diet or diet supplements that reaches the large intestine [3]
CCCC(=O)O [Butyrate, calcium butyrate]	significantly reduce the release of the pro-inflammatory cytokine	28.8%*	40.5%	significantly reduce release of the pro-inflammatory cytokine	23.8%*	61.5%	
O=C(O)[C@H](O)[C@@H](O)[C@H](O)[C@H](O)CO [Gluconic acid, gluconic acid]	significantly reduce the release of the pro-inflammatory cytokine	30.3%*	37.6%	significantly reduce release of the pro-inflammatory cytokine	24.3%*	60.5%	over 70%
